Experiments:
[1] = tested on: colorectal (HCT116 and SW620) cell line models; assay: MTS growth inhibition assay; format: cell-based; details: increasing concentrations of 5-FU between 0 and 100 μmol/L; both colorectal cancer cell lines evaluated
Method: The Cell Titer AQueous MTS assay (Promega) is carried out according to the manufacturers guidelines. […] The combination effect is determined by the combination index (CI) method utilizing Calcusyn software (Biosoft, Ferguson, Mo.). Fraction affected (FA) is calculated from the percent growth inhibition: FA=[…]. CI values <1, synergism; 1-1.2, additive and >1.2, antagonism.
MTS growth inhibition assays are performed to evaluate the effectiveness of the test compounds alone and in combination with the fluoropyrimidine thymidylate synthase (TS) inhibitor 5-fluorouracil (5-FU) at inhibiting the growth of colorectal (HCT116 and SW620) cell line models. […] Simultaneous treatment with increasing concentrations of 5-FU and a test compound at fixed concentrations of 25 μmol/L is determined.

[2] = tested on: colorectal (HCT116), breast (MCF-7) and non-small cell lung (H1299, A549, H358 and H460) cell line models; assay: Colony forming assay; format: cell-based; details: increasing concentrations of FUdR between 0.5 and 2.5 μmon; all cell lines evaluated
Method: Colony forming assay showing the ability of colon (SW620, HCT116), non-small cell lung (A549, H460, H1299 and H358) and breast (MCF7) cancer cells to survive and proliferate following transient 24 hour exposure to test compounds, FUdR and combinations are determined. Specifically, cells are seeded at densities between 50 and 100 cells/well in 24-well plates. […] After 24 hours, drug is removed, cells are rinsed and allowed to outgrow for 10-14 days. At the conclusion of the outgrowth, cells are fixed in 60% ice cold methanol and stained with 0.1% crystal violet, scanned and counted. Data is presented as percentage of untreated controls (mean±SD). Fraction affected and combination indexes are calculated according to the method of Chou and Talalay where <1 is indicative of a synergistic drug interaction.
In colorectal cancer cells, concentrations of test compounds ranging e.g., from 3.1 μmol/L to 50 μmol/L are combined with 0.5 μmol/L FUdR in HCT116 cells and 1 μmol/L FUdR in SW620 cells.

Row | Structure (SMILES) | growth inhibition [1] | colonies formed [2]
1 | O=c1[nH]cc(F)c(=O)[nH]1 [Example 5-FU, 5-fluorouracil] | dose-dependent increases in growth inhibition | 
2 | O=c1[nH]c(=O)n([C@H]2C[C@H](O)[C@@H](CO)O2)cc1F [FUdR, fluorodeoxyuridine] |  | dose-dependent decreases in colonies formed
